In PubChem BioAssay AID330 (DTP/NCI, 2004):
“And” between values parts separate entries of the source, which are not always exact repeats. Identical values can stand only once. Toxic doses and inconclusive results are not listed. How the source made its calls: active means survival T/C of 150% or more; inactive means T/C below 125% in these data.

System: P388 leukemia ip, CD2F1 mice, survival T/C
Experiment: NCI In Vivo Anticancer Drug Screen. Data for tumor model P388 Leukemia (intraperitoneal) in CD2F1 (CDF1) mice
Details: endpoint: median survival time, higher = longer survival
Summary of the method: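 Mice carrying the transplanted tumor received test compound or vehicle. Survival was recorded in each group, and the value is the treated-group measurement divided by that of the vehicle-treated control group.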

[1] = dose: 50.0 mg/kg/injection, schedule: Q01DX005 (ip), vehicle: saline
[2] = dose: 100.0 mg/kg/injection, schedule: Q01DX005 (ip), vehicle: saline
[3] = dose: 200.0 mg/kg/injection, schedule: Q01DX005 (ip), vehicle: saline
[4] = dose: 12.5 mg/kg/injection, schedule: Q01DX005 (ip), vehicle: saline with Tween-80
[5] = dose: 60.0 mg/kg/injection, schedule: Q01DX005 (ip), vehicle: saline with Tween-80
[6] = dose: 120.0 mg/kg/injection, schedule: Q01DX005 (ip), vehicle: saline with Tween-80
[7] = dose: 240.0 mg/kg/injection, schedule: Q01DX005 (ip), vehicle: saline with Tween-80
[8] = dose: 25.0 mg/kg/injection, schedule: Q04DX003 (ip), vehicle: saline with Tween-80
[9] = dose: 50.0 mg/kg/injection, schedule: Q01DX005 (ip), vehicle: saline with Tween-80
[10] = dose: 100.0 mg/kg/injection, schedule: Q01DX005 (ip), vehicle: saline with Tween-80
[11] = dose: 200.0 mg/kg/injection, schedule: Q01DX005 (ip), vehicle: saline with Tween-80
[12] = dose: 100.0 mg/kg/injection, schedule: Q04DX003 (ip), vehicle: saline with Tween-80
[13] = dose: 60.0 mg/kg/injection, schedule: Q01DX005 (ip), vehicle: saline
[14] = dose: 120.0 mg/kg/injection, schedule: Q01DX005 (ip), vehicle: saline
[15] = dose: 240.0 mg/kg/injection, schedule: Q01DX005 (ip), vehicle: saline
[16] = dose: 200.0 mg/kg/injection, schedule: Q04DX003 (ip), vehicle: saline with Tween-80

Measured: T/C

CC(NCCCCNC(C)C(=O)O)C(=O)O (centres undefined)
inactive: [1] 94 % of control | [2] 103 % of control | [3] 102 % of control

N#Cc1ccc(NN=NCCF)cc1
inactive: dose: 6.25 mg/kg/injection, schedule: Q01DX005 (ip), vehicle: distilled water + Tween-80 100 % of control | dose: 6.25 mg/kg/injection, schedule: Q01DX005 (ip), vehicle: saline with Tween-80 117 % of control | [4] 121 % of control

Cc1ccc(-c2nnc(N)o2)cc1
inactive: [5] 100 % of control | [6] 100 % of control | [7] 99 % of control

CCCCCCCCCCCCCCCc1ccc(C(=O)C[n+]2ccccc2)cc1
inactive: dose: 6.25 mg/kg/injection, schedule: Q04DX003 (ip), vehicle: saline with Tween-80 109 % of control | dose: 12.5 mg/kg/injection, schedule: Q04DX003 (ip), vehicle: saline with Tween-80 118 % of control | dose: 16.5 mg/kg/injection, schedule: Q04DX003 (ip), vehicle: saline with Tween-80 95 % of control | [8] 100 % of control

CC(C)C1N(N2C(=O)CS(=O)(=O)C2C(C)C)C(=O)CS1(=O)=O (centres undefined)
inactive: [9] 98 % of control | [10] 101 % of control | [11] 102 % of control

CCCCCC(Cn1ccnc1)c1ccccc1Br (centres undefined)
inactive: [8] 106 % of control | dose: 33.0 mg/kg/injection, schedule: Q04DX003 (ip), vehicle: saline with Tween-80 107 % of control | dose: 50.0 mg/kg/injection, schedule: Q04DX003 (ip), vehicle: saline with Tween-80 100 % of control and 108 % of control and 122 % of control | dose: 75.0 mg/kg/injection, schedule: Q04DX003 (ip), vehicle: saline with Tween-80 92 % of control | [12] 106 % of control and 111 % of control and 90 % of control

COc1ccc(C)cc1C(CC(=O)O)CC(=O)N(CCCl)CCCl (centres undefined)
inactive: dose: 100.0 mg/kg/injection, schedule: Q04DX003 (ip), vehicle: saline 102 % of control | dose: 200.0 mg/kg/injection, schedule: Q04DX003 (ip), vehicle: saline 100 % of control | dose: 400.0 mg/kg/injection, schedule: Q04DX003 (ip), vehicle: saline 102 % of control

COC(=O)CCSCCO
inactive: [5] 119 % of control | [6] 109 % of control | [7] 101 % of control

CN(C)C(=S)S(=O)(=O)CCCCCCS(=O)(=O)C(=S)N(C)C
inactive: dose: 50.0 mg/kg/injection, schedule: Q04DX002 (ip), vehicle: Klucel (hydroxypropylcellulose) (HPC) 102 % of control and 103 % of control | dose: 100.0 mg/kg/injection, schedule: Q04DX002 (ip), vehicle: Klucel (hydroxypropylcellulose) (HPC) 100 % of control and 110 % of control and 114 % of control | dose: 200.0 mg/kg/injection, schedule: Q04DX002 (ip), vehicle: Klucel (hydroxypropylcellulose) (HPC) 107 % of control and 111 % of control and 123 % of control | dose: 300.0 mg/kg/injection, schedule: Q04DX002 (ip), vehicle: Klucel (hydroxypropylcellulose) (HPC) 107 % of control and 109 % of control

CN(CCO)CC(O)Cn1cnc2c(N)ncnc21 (centres undefined)
inactive: [13] 95 % of control | [14] 97 % of control | [15] 100 % of control

Cc1cc2cc3c(=O)[nH]c(=O)nc-3n(CC(O)C(O)C(O)CO)c2cc1C (centres undefined)
inactive: dose: 15.0 mg/kg/injection, schedule: Q01DX005 (ip), vehicle: saline with Tween-80 101 % of control and 103 % of control | dose: 30.0 mg/kg/injection, schedule: Q01DX005 (ip), vehicle: saline with Tween-80 116 % of control and 98 % of control

O=C(O)c1cc(O)cc(C(=O)O)c1
inactive: dose: 25.0 mg/kg/injection, schedule: Q01DX009 (ip), vehicle: saline with Tween-80 99 % of control | dose: 50.0 mg/kg/injection, schedule: Q01DX009 (ip), vehicle: saline with Tween-80 99 % of control | dose: 100.0 mg/kg/injection, schedule: Q01DX009 (ip), vehicle: saline with Tween-80 94 % of control

Cc1c(C(=O)O)no[n+]1[O-]
inactive: [13] 101 % of control | [14] 93 % of control | [15] 93 % of control

CN(C)/C=C\c1c([N+](=O)[O-])ncn1C
inactive: [9] 99 % of control | [10] 99 % of control | [11] 97 % of control

CSC1=Nc2cc3c(cc2C(=O)N2C[C@H](O)CC12)OCO3 (some centres undefined)
inactive: [9] 108 % of control | [10] 102 % of control | [11] 94 % of control

O=S(=O)(Cl)C(Cl)(Cl)Cl
inactive: dose: 25.0 mg/kg/injection, schedule: Q01DX009 (ip), vehicle: saline sonified 95 % of control | dose: 50.0 mg/kg/injection, schedule: Q01DX009 (ip), vehicle: saline sonified 100 % of control | dose: 100.0 mg/kg/injection, schedule: Q01DX009 (ip), vehicle: saline sonified 86 % of control

CCCCNC(=O)NC1OC(CO)C(O)C1O (centres undefined)
inactive: [1] 98 % of control | [2] 97 % of control | [3] 100 % of control

CC1=CC(=O)C(O)C2(C)C1CC1OC(=O)C(OC(=O)c3ccccc3)C3(O)C4(C)OCC13C2C(O)C4O (centres undefined)
inactive: dose: 0.75 mg/kg/injection, schedule: Q01DX005 (ip), vehicle: saline + alcohol 101 % of control | dose: 1.5 mg/kg/injection, schedule: Q01DX005 (ip), vehicle: saline + alcohol 101 % of control | dose: 3.0 mg/kg/injection, schedule: Q01DX005 (ip), vehicle: saline + alcohol 108 % of control | dose: 6.0 mg/kg/injection, schedule: Q01DX005 (ip), vehicle: saline + alcohol 105 % of control

O=c1c(O)c(-c2ccc(O)c(O)c2)oc2cc(O)cc(O)c12
inactive: dose: 12.5 mg/kg/injection, schedule: Q03HX008 (ip), vehicle: saline with Tween-80 95 % of control | dose: 25.0 mg/kg/injection, schedule: Q03HX008 (ip), vehicle: saline with Tween-80 91 % of control | dose: 40.0 mg/kg/injection, schedule: Q01DX009 (ip), vehicle: saline with Tween-80 100 % of control | dose: 50.0 mg/kg/injection, schedule: Q03HX008 (ip), vehicle: saline with Tween-80 93 % of control | dose: 80.0 mg/kg/injection, schedule: Q01DX009 (ip), vehicle: saline with Tween-80 100 % of control | dose: 100.0 mg/kg/injection, schedule: Q01DX001 (ip), vehicle: saline with Tween-80 108 % of control | dose: 100.0 mg/kg/injection, schedule: Q03HX008 (ip), vehicle: saline with Tween-80 99 % of control | [12] 95 % of control | dose: 200.0 mg/kg/injection, schedule: Q01DX001 (ip), vehicle: saline with Tween-80 98 % of control | dose: 200.0 mg/kg/injection, schedule: Q03HX008 (ip), vehicle: saline with Tween-80 103 % of control | [16] 109 % of control | dose: 400.0 mg/kg/injection, schedule: Q01DX001 (ip), vehicle: saline with Tween-80 104 % of control | dose: 400.0 mg/kg/injection, schedule: Q04DX003 (ip), vehicle: saline with Tween-80 104 % of control | dose: 800.0 mg/kg/injection, schedule: Q01DX001 (ip), vehicle: saline with Tween-80 108 % of control

O=C1C=CC(=O)c2c1c(O)c1ccccc1c2Cl
inactive: dose: 6.25 mg/kg/injection, schedule: Q01DX005 (ip), vehicle: saline 102 % of control | dose: 12.5 mg/kg/injection, schedule: Q01DX005 (ip), vehicle: saline 95 % of control | dose: 25.0 mg/kg/injection, schedule: Q01DX005 (ip), vehicle: saline 93 % of control

CCOC(=O)C(CC(C)C(C)=O)C(=O)OCC (centres undefined)
inactive: dose: 12.5 mg/kg/injection, schedule: Q01DX009 (ip), vehicle: other 93 % of control | dose: 25.0 mg/kg/injection, schedule: Q01DX009 (ip), vehicle: other 90 % of control | dose: 50.0 mg/kg/injection, schedule: Q01DX009 (ip), vehicle: other 94 % of control | dose: 100.0 mg/kg/injection, schedule: Q01DX009 (ip), vehicle: other 97 % of control | dose: 200.0 mg/kg/injection, schedule: Q01DX009 (ip), vehicle: other 103 % of control

CN1CCCC(CN2c3ccccc3Sc3ccccc32)C1 (centres undefined)
inactive: [4] 100 % of control | dose: 25.0 mg/kg/injection, schedule: Q01DX005 (ip), vehicle: saline with Tween-80 102 % of control | [9] 104 % of control and 105 % of control | [10] 111 % of control

COc1cc2c[n+]3c4c(cccc4c2cc1OC)CCC3
inactive: dose: 12.5 mg/kg/injection, schedule: Q01DX009 (ip), vehicle: water 109 % of control | dose: 25.0 mg/kg/injection, schedule: Q01DX009 (ip), vehicle: water 108 % of control | dose: 50.0 mg/kg/injection, schedule: Q01DX009 (ip), vehicle: water 110 % of control

C#CCOC(=O)c1ccc(C(=O)OCC#C)cc1
inactive: [12] 100 % of control | [16] 90 % of control
